Test results taken from US11851391B2, “Antifungal compounds and methods of forming the same” (University of Kentucky Research Foundation, priority 2018, dated 2023).
≈ marks a conversion by molar mass, not a printed value. Entries after “also recorded” stand apart in the source; their conditions may differ. Read-outs that look alike come from different tables or passages of the source.

Tests used:
[1] = Solubility of the compounds; format: physicochemical
[2] = tested on: Candida albicans ATCC 10231(R) (strain A); test: MIC determination, in vitro antifungal assay (CLSI M27-A3); format: cell-based; conditions: MIC-0 (no visible growth), 48 h at 35° C.
Description: (§1) The activity of N,N′-diaryl-bishydrazones 7-22 was tested against a panel of seven strains of C. albicans: ATCC 10231(R) (A), ATCC 64124(R) (B), ATCC MYA-2876(S) (C), ATCC 90819(R) (D), ATCC MYA-2310(S) (E), ATCC MYA-1237(R) (F), and ATCC MYA-1003(R) (G). The activity of these bishydrazones 7-22 was also explored against a panel of three non-albicans Candida strains: C. glabrata ATCC 2001 (H), C. krusei ATCC 6258 (I), and C. parapsilosis ATCC 22019 (J). Finally, the activity of these bishydrazones 7-22 was explored against three Aspergillus strains: A. flavus ATCC MYA-3631 (K), A. nidulans ATCC 38163 (L), and A. terreus ATCC MYA-3633 (M).
(§2) Candida albicans ATCC 10231 (A), C. albicans ATCC 64124 (B), and C. albicans ATCC MYA-2876 (C) were kindly provided by Dr. Jon Y. Takemoto (Utah State University, Logan, UT, USA). C. albicans ATCC 90819 (D), C. albicans ATCC MYA-2310 (E), C. albicans ATCC MYA-1237 (F), C. albicans ATCC MYA-1003 (G), Candida glabrata ATCC 2001 (H), Candida krusei ATCC 6258 (I), Candida parapsilosis ATCC 22019 (J), Aspergillus flavus ATCC MYA-3631 (K), and Aspergillus terreus ATCC MYA-3633 (M) were obtained from the American Type Culture Collection (ATCC; Manassas, VA, USA). Aspergillus nidulans ATCC 38163 (L) was received from Dr. Jon S. Thorson (University of Kentucky, Lexington, KY, USA). Filamentous fungi and yeasts were cultivated at 35° C. in RPMI 1640 medium (with 1-glutamine, without sodium biocarbonate, Sigma-Aldrich, St. Louis, MO) buffered to a pH of 7.0 with 0.165 M morpholinepropanesulfonic acid (MOPS) buffer (Sigma-Aldrich).
(§3) The MIC values of compounds 7a-24c against yeast cells (strains A-J) were determined in 96-well plates as described in the CLSI document M27-A3 with minor modifications. A single colony of freshly prepared yeast cells was used to inoculate 5 mL of yeast extract peptone dextrose (YPD) broth prior to incubation overnight with shaking at 200 rpm at 35° C. From the actively growing yeast culture, 100 μL were then transferred to 900 μL of sterile ddH2O and re-adjusted to achieve OD600 of 0.12 (˜1×10^6 CFU/mL). The cell suspension was further diluted to achieve 2-4×10^3 CFU/mL in RPMI 1640 medium. […] The final concentration of DMSO was ensured to be <1.25% in all experiments. The MIC values for compounds 7a-24c and CAS were defined as the minimum drug concentration that yielded complete inhibition (also known as MIC-0).

[3] = tested on: Candida parapsilosis ATCC 22019 (strain J); test: as above; format: cell-based; conditions: strain J, MIC-0, 48 h at 35° C.
Description: as §1, §2, §3

[4] = tested on: C. albicans ATCC MYA-2876(S) (strain C); test: as above; format: cell-based, Candida albicans; conditions: Candida albicans, 48 h, MIC-0, 48 h at 35° C., read-out: MIC
Description: as §1, §2
(§4) A single colony of freshly prepared yeast cells was used to inoculate 5 mL of yeast extract peptone dextrose (YPD) broth prior to incubation overnight with shaking at 200 rpm at 35° C. From the actively growing yeast culture, 100 μL were then transferred to 900 μL of sterile ddH2O and re-adjusted to achieve OD600 of 0.12 (˜1×10^6 CFU/mL). The cell suspension was further diluted to achieve 2-4×10^3 CFU/mL in RPMI 1640 medium. […] The final concentration of DMSO was ensured to be <1.25% in all experiments.

[5] = tested on: C. albicans ATCC MYA-1003(R) (strain G); test: as above; format: cell-based, Candida albicans; conditions: MIC-0, 48 h at 35° C.
Description: as §1, §2, §4

[6] = tested on: C. albicans ATCC MYA-2310(S) (strain E); test: as above; format: cell-based, Candida albicans; conditions: Candida albicans, 48 h, MIC-0, 48 h at 35° C., read-out: MIC
Description: as §1, §2, §3

[7] = tested on: C. albicans ATCC 90819(R) (strain D); test: as above; format: cell-based, Candida albicans; conditions: Candida albicans, ATCC90819, 48 h, MIC-0, 48 h at 35° C., read-out: MIC
Description: as §1, §2, §3

[8] = tested on: C. albicans ATCC 64124(R) (strain B); test: as above; format: cell-based, Candida albicans; conditions: strain B, MIC-0, 48 h at 35° C.
Description: as §1, §2, §3

[9] = tested on: C. albicans ATCC MYA-1237(R) (strain F); test: as above; format: cell-based, Candida albicans; conditions: Candida albicans, 48 h, MIC-0, 48 h at 35° C., read-out: MIC
Description: as §1, §2, §3

[10] = tested on: various yeast strains and filamentous fungi (strains A-M); test: Antifungal activity over the whole panel (summary of MIC data); format: cell-based, Candida and Aspergillus strains; conditions: for antifungal activity (in words): over the fungal strains tested, based on MIC data of Table 1; for MIC: against all fungal strains tested, with named exceptions, read-out: antifungal activity class based on MIC values
Description: as §1, §3
(§5) Similarly, the MIC values of compounds 7a-24c, as well as that of the two control drugs against filamentous fungi (strains K-M) were determined as previously described in CLSI document M38-A2. Spores were harvested from sporulating cultures growing on potato dextrose agar (PDA) by filtration through sterile glass wool and enumerated by using a hemocytometer to obtain the desired inoculum size. […] Spore suspensions were added to the wells to afford a final concentration of 5×10^5 CFU/mL. The plates were incubated at 35° C. for 48 h. The MIC values of compounds 7a-24c and CAS against filamentous fungi were based on the complete inhibition of growth when compared to the growth control (MIC-0). […] Each test was performed in triplicate.

[11] = tested on: Candida glabrata ATCC 2001 (strain H); test: MIC determination, in vitro antifungal assay (CLSI M27-A3); format: cell-based; conditions: Nakaseomyces glabratus, ATCC2001, 48 h, MIC-0, 48 h at 35° C., read-out: MIC
Description: as §1, §2, §4

[12] = tested on: Candida krusei ATCC 6258 (strain I); test: as above; format: cell-based; conditions: Pichia kudriavzevii, ATCC6258, 48 h, MIC-0, 48 h at 35° C., read-out: MIC
Description: as §1, §2, §4

[13] = tested on: Aspergillus flavus ATCC MYA-3631 (strain K); test: MIC determination against filamentous fungi (CLSI M38-A2); format: cell-based; conditions: Aspergillus flavus, 48 h, MIC-0, 48 h at 35° C., read-out: MIC
Description: as §1, §2, §5

[14] = tested on: Aspergillus nidulans ATCC 38163 (strain L); test: as above; format: cell-based; conditions: Aspergillus nidulans, ATCC38163, 48 h, MIC-0, 48 h at 35° C., read-out: MIC
Description: as §1, §2, §5

[15] = tested on: Aspergillus terreus ATCC MYA-3633 (strain M); test: as above; format: cell-based; conditions: Aspergillus terreus, 48 h, MIC-0, 48 h at 35° C., read-out: MIC
Description: as §1, §2, §5

[16] = Candida albicans, ATCC10231, 48 h, read-out: MIC
[17] = Lodderomyces parapsilosis, ATCC22019, 48 h, read-out: MIC
[18] = Candida albicans, 48 h, read-out: MIC
[19] = Candida albicans, ATCC64124, 48 h, read-out: MIC

O=[N+]([O-])c1ccccc1N/N=C/c1ccc(-c2cccc(/C=N/Nc3ccccc3[N+](=O)[O-])c2)cc1 [Compound 8a]
solubility (in words) [1]: limited solubility; also recorded: insoluble

O=[N+]([O-])c1ccccc1N/N=C/c1ccc(-c2ccc(/C=N/Nc3ccccc3[N+](=O)[O-])cc2)cc1 [Compound 8b]
solubility (in words) [1]: limited solubility; also recorded: insoluble

COc1ccccc1N/N=C/c1ccc(-c2cccc(/C=N/Nc3ccccc3OC)c2)cc1 [Compound 9a]
solubility (in words) [1]: limited solubility; also recorded: insoluble

COc1ccccc1N/N=C/c1ccc(-c2ccc(/C=N/Nc3ccccc3OC)cc2)cc1 [Compound 9b]
solubility (in words) [1]: limited solubility; also recorded: insoluble

COc1cccc(N/N=C/c2ccc(-c3cccc(/C=N/Nc4cccc(OC)c4)c3)cc2)c1 [Compound 11a]
solubility (in words) [1]: limited solubility; also recorded: insoluble

Clc1ccc(N/N=C/c2ccc(-c3cccc(/C=N/Nc4ccc(Cl)cc4)c3)cc2)cc1 [Compound 18a]
MIC [2, 16]: 7.8 µg/mL (≈ 17 µM)
MIC [3, 17]: 1.95 to 3.9 µg/mL (≈ 4.24 to 8.49 µM)
MIC [3]: 3.9 µg/mL (≈ 8.49 µM)
MIC [4]: 15.6 µg/mL (≈ 34 µM)
MIC [5, 18]: 1.95 to 3.9 µg/mL (≈ 4.24 to 8.49 µM)
MIC [5]: 3.9 µg/mL (≈ 8.49 µM)
MIC [6]: 31.3 µg/mL (≈ 68.1 µM)
MIC [7]: 15.6 µg/mL (≈ 34 µM)
MIC [8, 19]: 7.8 µg/mL (≈ 17 µM)
MIC [9]: 15.6 µg/mL (≈ 34 µM)
antifungal activity (in words) [10]: overall antifungal activity against all the strains tested; also recorded: good activity against the majority of the fungal strains tested; also recorded: excellent activity only against yeast strains
MIC [11]: 15.6 µg/mL (≈ 34 µM)
MIC [12]: 31.3 µg/mL (≈ 68.1 µM)
MIC [13]: > 31.3 µg/mL
MIC [14]: > 31.3 µg/mL
MIC [15]: > 31.3 µg/mL

Clc1ccc(N/N=C/c2ccc(-c3ccc(/C=N/Nc4ccc(Cl)cc4)cc3)cc2)cc1 [Compound 18b]
MIC [2, 16]: > 31.3 µg/mL
MIC [3, 17]: 31.3 µg/mL (≈ 68.1 µM)
MIC [4]: > 31.3 µg/mL
MIC [5, 18]: > 31.3 µg/mL
MIC [6]: > 31.3 µg/mL
MIC [7]: > 31.3 µg/mL
MIC [8, 19]: > 31.3 µg/mL
MIC [9]: > 31.3 µg/mL
antifungal activity (in words) [10]: inactive
MIC [11]: > 31.3 µg/mL
MIC [12]: 31.3 µg/mL (≈ 68.1 µM)
MIC [13]: > 31.3 µg/mL
MIC [14]: > 31.3 µg/mL
MIC [15]: 31.3 µg/mL (≈ 68.1 µM)

Brc1ccc(N/N=C/c2ccc(-c3ccc(/C=N/Nc4ccc(Br)cc4)cc3)cc2)cc1 [Compound 19b]
MIC [2, 16]: > 31.3 µg/mL
MIC [3, 17]: 31.3 µg/mL (≈ 57.1 µM)
MIC [4]: > 31.3 µg/mL
MIC [5, 18]: > 31.3 µg/mL
MIC [6]: > 31.3 µg/mL
MIC [7]: > 31.3 µg/mL
MIC [8, 19]: > 31.3 µg/mL
MIC [9]: > 31.3 µg/mL
antifungal activity (in words) [10]: inactive
MIC [11]: > 31.3 µg/mL
MIC [12]: > 31.3 µg/mL
MIC [13]: > 31.3 µg/mL
MIC [14]: > 31.3 µg/mL
MIC [15]: > 31.3 µg/mL

Fc1ccc(N/N=C/c2ccc(-c3ccc(/C=N/Nc4ccc(F)cc4F)cc3)cc2)c(F)c1 [Compound 20b]
MIC [2, 16]: 7.8 µg/mL (≈ 16.9 µM)
MIC [2]: 7.8 µg/mL (≈ 16.9 µM)
MIC [3, 17]: > 31.3 µg/mL
MIC [4]: > 31.3 µg/mL
MIC [5, 18]: > 31.3 µg/mL
MIC [6]: > 31.3 µg/mL
MIC [7]: 31.3 µg/mL (≈ 67.7 µM)
MIC [8, 19]: > 31.3 µg/mL
MIC [9]: > 31.3 µg/mL
MIC [10]: ≥ 31.3 µg/mL
MIC [11]: > 31.3 µg/mL
MIC [12]: > 31.3 µg/mL
MIC [13]: > 31.3 µg/mL
MIC [14]: > 31.3 µg/mL
MIC [15]: > 31.3 µg/mL

Fc1cc(F)cc(N/N=C/c2ccc(-c3cccc(/C=N/Nc4cc(F)cc(F)c4)c3)cc2)c1 [Compound 22a]
MIC [2, 16]: 3.9 µg/mL (≈ 8.43 µM)
MIC [2]: 3.9 µg/mL (≈ 8.43 µM)
MIC [3, 17]: > 31.3 µg/mL
MIC [4]: 31.3 µg/mL (≈ 67.7 µM)
MIC [5, 18]: 31.3 µg/mL (≈ 67.7 µM)
MIC [6]: > 31.3 µg/mL
MIC [7]: > 31.3 µg/mL
MIC [8, 19]: 15.6 µg/mL (≈ 33.7 µM)
MIC [8]: 15.6 µg/mL (≈ 33.7 µM)
MIC [9]: 31.3 µg/mL (≈ 67.7 µM)
antifungal activity (in words) [10]: no activity
MIC [11]: > 31.3 µg/mL
MIC [12]: > 31.3 µg/mL
MIC [13]: > 31.3 µg/mL
MIC [14]: > 31.3 µg/mL
MIC [15]: > 31.3 µg/mL

Fc1cc(F)cc(N/N=C/c2ccc(-c3ccc(/C=N/Nc4cc(F)cc(F)c4)cc3)cc2)c1 [Compound 22b]
MIC [2, 16]: 15.6 µg/mL (≈ 33.7 µM)
MIC [2]: 15.6 µg/mL (≈ 33.7 µM)
MIC [3, 17]: > 31.3 µg/mL
MIC [4]: > 31.3 µg/mL
MIC [5, 18]: > 31.3 µg/mL
MIC [6]: > 31.3 µg/mL
MIC [7]: > 31.3 µg/mL
MIC [8, 19]: > 31.3 µg/mL
MIC [9]: > 31.3 µg/mL
MIC [10]: ≥ 31.3 µg/mL
antifungal activity (in words) [10]: no activity
MIC [11]: > 31.3 µg/mL
MIC [12]: > 31.3 µg/mL
MIC [13]: > 31.3 µg/mL
MIC [14]: > 31.3 µg/mL
MIC [15]: > 31.3 µg/mL
